Measurements reported in patent US20230085307A1, “PYRIDAZINONE COMPOUND AND HERBICIDE” (NISSAN CHEMICAL CORPORATION, priority 2019, published 2023).

What was measured:
late watergrass = experiment: Test Example 2: herbicidal activity, application during weed generation under submerged conditions (Table 17, symbol A); assay type: in vivo, late watergrass (Echinochloa oryzicola); details: AAH 320 g/ha; application during weed generation, submerged conditions
Outline: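 Mixed weed seedlings in alluvial soil under a 4 cm water layer, greenhouse-grown at 25–30° C. Compound given as a diluted emulsion into the floodwater at the 1–2 leaf stage; response graded after three weeks.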

barnyard grass [1] = experiment: Test Example 3: herbicidal effect by foliage application, Wagner pot (Table 18, symbol H); assay type: in vivo, barnyard grass (Echinochloa crus-galli); details: amount of applied herbicide 320 g/ha
Outline: (§1)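 Plants were sown in alluvial soil held under 0.1–0.5 cm standing water and grown 14 days in a greenhouse at 25–30 °C. An emulsifiable formulation, water-diluted to the set dose, was then sprayed onto the foliage, and effects were scored three weeks later using previously defined criteria.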

Chinese sprangletop = experiment: Test Example 3: herbicidal effect by foliage application, Wagner pot (Table 18, symbol D); assay type: in vivo, chinese sprangletop (Leptochloa chinensis); details: amount of applied herbicide 320 g/ha
Outline: as §1

southern crabgrass = experiment: Test Example 4: herbicidal effect by soil treatment (Table 19, symbol F); assay type: in vivo, southern crabgrass (Digitaria ciliaris); details: amount of applied herbicide 320 g/ha
Outline: (§2)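 Seeds were sown in sterilized diluvial soil and covered with about 1.5 cm of soil. An emulsion formulation diluted with water to a predetermined herbicide amount was sprayed evenly onto the soil surface. Plants grew in a greenhouse at 25° C. to 30° C., and the effect was scored three weeks after application using criteria from an earlier test.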

barnyard grass [2] = experiment: Test Example 4: herbicidal effect by soil treatment (Table 19, symbol H); assay type: in vivo, barnyard grass (Echinochloa crus-galli); details: amount of applied herbicide 320 g/ha
Outline: as §2

blackgrass [3] = experiment: Test Example 4: herbicidal effect by soil treatment (Table 19, symbol J); assay type: in vivo, blackgrass (Alopecurus myosuroides); details: amount of applied herbicide 320 g/ha
Outline: as §2

redroot pigweed [4] = experiment: Test Example 4: herbicidal effect by soil treatment (Table 19, symbol N); assay type: in vivo, redroot pigweed (Amaranthus retroflexus); details: amount of applied herbicide 320 g/ha
Outline: as §2

lambsquarters = experiment: Test Example 4: herbicidal effect by soil treatment (Table 19, symbol O); assay type: in vivo, lambsquarters (Chenopodium album); details: amount of applied herbicide 320 g/ha
Outline: as §2

chickweed = experiment: Test Example 4: herbicidal effect by soil treatment (Table 19, symbol P); assay type: in vivo, common chickweed (Stellaria media); details: amount of applied herbicide 320 g/ha
Outline: as §2

barnyard grass [5] = experiment: Test Example 5: herbicidal effect by foliage application, plastic box (Table 20, symbol H); assay type: in vivo, barnyard grass (Echinochloa crus-galli); details: foliage application, 320 g/ha, evaluated three weeks after application
Outline: (§3)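 Plants sown in sterilized diluvial soil and grown 14 days in a greenhouse at 25° C to 30° C, then sprayed on the foliage with the compound's emulsion diluted in water to a predetermined herbicide amount. Injury to weeds and crops scored three weeks after application on a visual rating scale.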

wild oat = experiment: Test Example 5: herbicidal effect by foliage application, plastic box (Table 20, symbol I); assay type: in vivo, wild oat (Avena fatua); details: foliage application, 320 g/ha, evaluated three weeks after application
Outline: as §3

blackgrass [6] = experiment: Test Example 5: herbicidal effect by foliage application, plastic box (Table 20, symbol J); assay type: in vivo, blackgrass (Alopecurus myosuroides); details: foliage application, 320 g/ha, evaluated three weeks after application
Outline: as §3

Italian ryegrass = experiment: Test Example 5: herbicidal effect by foliage application, plastic box (Table 20, symbol K); assay type: in vivo, Italian ryegrass (Lolium multiflorum); details: foliage application, 320 g/ha, evaluated three weeks after application
Outline: as §3

velvetleaf = experiment: Test Example 5: herbicidal effect by foliage application, plastic box (Table 20, symbol M); assay type: in vivo, velvetleaf (Abutilon theophrasti); details: foliage application, 320 g/ha, evaluated three weeks after application
Outline: as §3

redroot pigweed [7] = experiment: Test Example 5: herbicidal effect by foliage application, plastic box (Table 20, symbol N); assay type: in vivo, redroot pigweed (Amaranthus retroflexus); details: foliage application, 320 g/ha, evaluated three weeks after application
Outline: as §3

persian speedwell = experiment: Test Example 5: herbicidal effect by foliage application, plastic box (Table 20, symbol R); assay type: in vivo, Persian speedwell (Veronica persica); details: foliage application, 320 g/ha, evaluated three weeks after application
Outline: as §3

## CCc1ccc(-c2sc3ccc(F)cc3c2-c2c(O)c(C)nn(C)c2=O)cc1 [2-207]
Late watergrass
  herbicidal effect rating, A: late watergrass: 3 (Herbicidal rate of 40% or more and less than 70%)
Barnyard grass [1]
  herbicidal effect on H: barnyard grass: 4 (Herbicidal rate of 70% or more and less than 90%)
Chinese sprangletop
  herbicidal effect on D: Chinese sprangletop: 5 (Herbicidal rate of 90% or more (almost completely withered))
Southern crabgrass
  F: southern crabgrass, herbicidal effect rating: 3 (Herbicidal rate of 40% or more and less than 70%)
Barnyard grass [2]
  H: barnyard grass, herbicidal effect rating: 2 (Herbicidal rate of 20% or more and less than 40%)
Blackgrass [3]
  J: blackgrass, herbicidal effect rating: 0 (Herbicidal rate of 5% or less (almost no effect))
Redroot pigweed [4]
  N: redroot pigweed, herbicidal effect rating: 5 (Herbicidal rate of 90% or more (almost completely withered))
lambsquarters
  O: lambsquarters, herbicidal effect rating: 5 (Herbicidal rate of 90% or more (almost completely withered))
chickweed
  P: chickweed, herbicidal effect rating: 3 (Herbicidal rate of 40% or more and less than 70%)
Barnyard grass [5]
  herbicidal effect on H: barnyard grass (criteria 0-5): 4 (Herbicidal rate of 70% or more and less than 90%)
Wild oat
  herbicidal effect on I: wild oat (criteria 0-5): 3 (Herbicidal rate of 40% or more and less than 70%)
Blackgrass [6]
  herbicidal effect on J: blackgrass (criteria 0-5): 4 (Herbicidal rate of 70% or more and less than 90%)
Italian ryegrass
  herbicidal effect on K: Italian ryegrass (criteria 0-5): 4 (Herbicidal rate of 70% or more and less than 90%)
velvetleaf
  herbicidal effect on M: velvetleaf (criteria 0-5): 5 (Herbicidal rate of 90% or more (almost completely withered))
Redroot pigweed [7]
  herbicidal effect on N: redroot pigweed (criteria 0-5): 5 (Herbicidal rate of 90% or more (almost completely withered))
Persian speedwell
  herbicidal effect on R: persian speedwell (criteria 0-5): 5 (Herbicidal rate of 90% or more (almost completely withered))

## Cc1nn(C)c(=O)c(-c2c(-c3cccc(OCC(C)C)c3)sc3ccc(F)cc23)c1O [2-221]
Late watergrass
  herbicidal effect rating, A: late watergrass: 5 (Herbicidal rate of 90% or more (almost completely withered))
Barnyard grass [1]
  herbicidal effect on H: barnyard grass: 5 (Herbicidal rate of 90% or more (almost completely withered))
Chinese sprangletop
  herbicidal effect on D: Chinese sprangletop: 5 (Herbicidal rate of 90% or more (almost completely withered))
Southern crabgrass
  F: southern crabgrass, herbicidal effect rating: 5 (Herbicidal rate of 90% or more (almost completely withered))
Barnyard grass [2]
  H: barnyard grass, herbicidal effect rating: 5 (Herbicidal rate of 90% or more (almost completely withered))
Blackgrass [3]
  J: blackgrass, herbicidal effect rating: 5 (Herbicidal rate of 90% or more (almost completely withered))
Redroot pigweed [4]
  N: redroot pigweed, herbicidal effect rating: 5 (Herbicidal rate of 90% or more (almost completely withered))
lambsquarters
  O: lambsquarters, herbicidal effect rating: 4 (Herbicidal rate of 70% or more and less than 90%)
chickweed
  P: chickweed, herbicidal effect rating: 3 (Herbicidal rate of 40% or more and less than 70%)
Barnyard grass [5]
  herbicidal effect on H: barnyard grass (criteria 0-5): 5 (Herbicidal rate of 90% or more (almost completely withered))
Wild oat
  herbicidal effect on I: wild oat (criteria 0-5): 5 (Herbicidal rate of 90% or more (almost completely withered))
Blackgrass [6]
  herbicidal effect on J: blackgrass (criteria 0-5): 5 (Herbicidal rate of 90% or more (almost completely withered))
Italian ryegrass
  herbicidal effect on K: Italian ryegrass (criteria 0-5): 5 (Herbicidal rate of 90% or more (almost completely withered))
velvetleaf
  herbicidal effect on M: velvetleaf (criteria 0-5): 5 (Herbicidal rate of 90% or more (almost completely withered))
Redroot pigweed [7]
  herbicidal effect on N: redroot pigweed (criteria 0-5): 5 (Herbicidal rate of 90% or more (almost completely withered))
Persian speedwell
  herbicidal effect on R: persian speedwell (criteria 0-5): 5 (Herbicidal rate of 90% or more (almost completely withered))
